Measurements published in ChEMBL document CHEMBL3988442, “University of Dundee, Small-Polar-MMV Screening Library” (2021).
Several values for one entry are separate records, joined by “and”; a condition that tells them apart may be missing. Equal entries are not always repeated.

Assays:
Proteasome subunit beta = molecular target: T1, Proteasome subunit beta (Trypanosoma cruzi, UniProt O96673); test: Trypanosoma cruzi proteasome chymotrypsin-like activity (TcProtChymo) assay.; assay type: functional
T1 sequence (O96673 whole entry): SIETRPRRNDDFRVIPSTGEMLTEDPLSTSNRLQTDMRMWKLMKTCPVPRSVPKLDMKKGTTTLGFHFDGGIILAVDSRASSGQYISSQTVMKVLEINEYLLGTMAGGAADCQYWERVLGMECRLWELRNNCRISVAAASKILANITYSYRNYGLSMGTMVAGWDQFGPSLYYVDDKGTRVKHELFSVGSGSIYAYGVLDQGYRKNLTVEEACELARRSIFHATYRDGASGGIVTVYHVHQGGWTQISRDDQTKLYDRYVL

[1] = Trypanosoma cruzi proteasome luciferase counter-screen; assay type: functional, N/A
Schistosoma mansoni = test: High throughput screening of compounds against Schistosoma mansoni motility; assay type: functional; parameters: dose or concentration left out as unconfirmed
[2] = molecular target: T2, Arginase-2, mitochondrial (Homo sapiens, UniProt P78540); test: in vitro enzyme assay to detect the production of urea directly proportional to the activity of Arginase II; assay type: functional
T2 sequence (P78540 whole entry): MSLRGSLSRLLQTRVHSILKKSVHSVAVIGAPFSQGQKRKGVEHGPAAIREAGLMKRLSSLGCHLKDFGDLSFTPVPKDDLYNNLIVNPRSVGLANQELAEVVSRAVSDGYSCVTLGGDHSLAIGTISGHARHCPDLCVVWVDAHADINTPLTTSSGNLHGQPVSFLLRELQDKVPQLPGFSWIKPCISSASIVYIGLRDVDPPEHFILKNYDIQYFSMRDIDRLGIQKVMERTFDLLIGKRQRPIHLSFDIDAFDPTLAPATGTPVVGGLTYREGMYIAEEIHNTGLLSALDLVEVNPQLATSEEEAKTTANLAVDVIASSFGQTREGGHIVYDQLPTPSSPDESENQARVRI

[3] = molecular target: T3, Coenzyme A biosynthesis bifunctional protein CoaBC (Mycobacterium tuberculosis (strain ATCC 25618 / H37Rv), UniProt P9WNZ1); test: Biomol Green assay for MtCoaBC inhibitor, OD650 read; assay type: functional
T3 sequence (P9WNZ1 whole entry): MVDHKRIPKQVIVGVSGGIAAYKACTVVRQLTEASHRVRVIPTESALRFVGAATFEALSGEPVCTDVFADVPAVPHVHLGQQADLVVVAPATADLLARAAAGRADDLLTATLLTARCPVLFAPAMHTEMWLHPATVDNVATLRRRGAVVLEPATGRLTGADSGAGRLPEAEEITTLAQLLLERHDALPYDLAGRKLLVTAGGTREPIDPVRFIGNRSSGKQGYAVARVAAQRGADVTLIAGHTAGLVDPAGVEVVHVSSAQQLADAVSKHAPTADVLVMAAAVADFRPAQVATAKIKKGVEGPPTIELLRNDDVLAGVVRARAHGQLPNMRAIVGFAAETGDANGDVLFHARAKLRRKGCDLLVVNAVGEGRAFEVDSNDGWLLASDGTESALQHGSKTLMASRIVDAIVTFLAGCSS

Histidine--tRNA ligase = molecular target: T4, Histidine--tRNA ligase (Leishmania infantum, UniProt A4I591); test: Leishmania infantum Histidine tRNA synthetase (LdHisRS); assay type: functional
T4 sequence (A4I591 whole entry): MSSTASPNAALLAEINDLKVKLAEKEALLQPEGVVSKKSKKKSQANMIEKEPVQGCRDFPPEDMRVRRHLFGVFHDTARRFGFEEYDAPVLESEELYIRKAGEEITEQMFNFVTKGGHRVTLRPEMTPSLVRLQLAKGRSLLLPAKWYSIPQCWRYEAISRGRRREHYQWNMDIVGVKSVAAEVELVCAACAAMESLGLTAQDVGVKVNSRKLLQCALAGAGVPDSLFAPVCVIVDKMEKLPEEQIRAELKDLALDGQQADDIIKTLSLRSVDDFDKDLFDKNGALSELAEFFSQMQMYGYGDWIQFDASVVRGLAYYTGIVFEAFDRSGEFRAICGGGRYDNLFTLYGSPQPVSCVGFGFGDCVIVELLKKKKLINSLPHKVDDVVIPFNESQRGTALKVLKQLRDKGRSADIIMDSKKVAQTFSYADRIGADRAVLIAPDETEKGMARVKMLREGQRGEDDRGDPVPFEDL

Plasmodium falciparum = test: Plasmodium falciparum sporozoite viability assay; assay type: functional, organism-based; settings: for IC50: Plasmodium falciparum
ClpP1P2 = ClpP1P2 (Mycobacterium tuberculosis (strain ATCC 25618 / H37Rv), UniProt P9WPC3+P9WPC5); test: in vitro assay to detect presence of AMC directly proportional to the activity of ClpP1P2. GHDDI collaboration.; assay type: functional
Sequence of ClpP1P2 (P9WPC5 whole entry): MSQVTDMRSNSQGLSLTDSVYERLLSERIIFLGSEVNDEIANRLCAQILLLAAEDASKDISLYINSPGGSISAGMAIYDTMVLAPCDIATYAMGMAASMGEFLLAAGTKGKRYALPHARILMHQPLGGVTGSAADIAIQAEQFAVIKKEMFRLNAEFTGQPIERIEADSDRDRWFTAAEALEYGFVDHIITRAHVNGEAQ
Sequence of ClpP1P2 (P9WPC3 whole entry): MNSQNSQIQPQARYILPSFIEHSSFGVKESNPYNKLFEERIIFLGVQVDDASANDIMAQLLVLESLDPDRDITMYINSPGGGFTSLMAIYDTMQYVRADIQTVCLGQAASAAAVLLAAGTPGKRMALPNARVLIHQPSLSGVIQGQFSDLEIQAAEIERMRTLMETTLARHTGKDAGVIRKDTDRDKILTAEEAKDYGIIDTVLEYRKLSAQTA

[4] = molecular target: T5, Ubiquitin-activating enzyme e1, putative (Leishmania donovani (strain BPK282A1), UniProt E9BSI1); test: Leishmania donovani Ubiquitin Activating Enzyme (LdE1); assay type: functional
T5 sequence (E9BSI1 whole entry): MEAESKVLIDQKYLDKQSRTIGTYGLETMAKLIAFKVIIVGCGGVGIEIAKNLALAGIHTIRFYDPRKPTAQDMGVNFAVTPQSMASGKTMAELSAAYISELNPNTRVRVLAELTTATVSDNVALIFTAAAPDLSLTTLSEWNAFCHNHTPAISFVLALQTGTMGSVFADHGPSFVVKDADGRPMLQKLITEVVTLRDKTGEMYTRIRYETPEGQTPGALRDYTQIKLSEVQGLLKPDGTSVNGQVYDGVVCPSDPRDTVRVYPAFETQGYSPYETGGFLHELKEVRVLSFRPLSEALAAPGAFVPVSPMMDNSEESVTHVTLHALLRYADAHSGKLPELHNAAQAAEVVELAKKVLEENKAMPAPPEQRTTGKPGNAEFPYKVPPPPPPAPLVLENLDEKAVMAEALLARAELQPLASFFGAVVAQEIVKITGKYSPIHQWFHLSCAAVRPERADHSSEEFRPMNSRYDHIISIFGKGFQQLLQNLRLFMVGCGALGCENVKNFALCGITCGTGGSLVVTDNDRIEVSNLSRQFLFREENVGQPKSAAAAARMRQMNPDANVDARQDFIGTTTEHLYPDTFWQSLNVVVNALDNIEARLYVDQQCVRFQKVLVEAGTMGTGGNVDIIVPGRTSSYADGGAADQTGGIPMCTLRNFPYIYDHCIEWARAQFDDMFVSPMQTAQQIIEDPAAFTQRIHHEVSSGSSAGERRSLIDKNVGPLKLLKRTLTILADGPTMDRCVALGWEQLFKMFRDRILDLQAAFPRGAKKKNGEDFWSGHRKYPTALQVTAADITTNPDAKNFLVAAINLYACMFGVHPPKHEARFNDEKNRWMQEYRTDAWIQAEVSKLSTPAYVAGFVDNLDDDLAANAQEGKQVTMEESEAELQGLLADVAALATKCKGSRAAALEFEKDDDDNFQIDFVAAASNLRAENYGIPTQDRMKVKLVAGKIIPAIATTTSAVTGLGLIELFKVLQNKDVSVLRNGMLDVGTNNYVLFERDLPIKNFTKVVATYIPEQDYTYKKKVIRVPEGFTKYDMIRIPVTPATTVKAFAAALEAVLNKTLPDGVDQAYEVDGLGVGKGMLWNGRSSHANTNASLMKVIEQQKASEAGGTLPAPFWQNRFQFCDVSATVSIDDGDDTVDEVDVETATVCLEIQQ

[5] = molecular target: Polyketide synthase Pks13 (Mycobacterium tuberculosis (strain ATCC 25618 / H37Rv), UniProt I6X8D2); test: Mycobacterium tuberculosis Polyketide synthase 13 Thioesterase (PKS13); assay type: functional
Sequence of Polyketide synthase Pks13 (I6X8D2 whole entry): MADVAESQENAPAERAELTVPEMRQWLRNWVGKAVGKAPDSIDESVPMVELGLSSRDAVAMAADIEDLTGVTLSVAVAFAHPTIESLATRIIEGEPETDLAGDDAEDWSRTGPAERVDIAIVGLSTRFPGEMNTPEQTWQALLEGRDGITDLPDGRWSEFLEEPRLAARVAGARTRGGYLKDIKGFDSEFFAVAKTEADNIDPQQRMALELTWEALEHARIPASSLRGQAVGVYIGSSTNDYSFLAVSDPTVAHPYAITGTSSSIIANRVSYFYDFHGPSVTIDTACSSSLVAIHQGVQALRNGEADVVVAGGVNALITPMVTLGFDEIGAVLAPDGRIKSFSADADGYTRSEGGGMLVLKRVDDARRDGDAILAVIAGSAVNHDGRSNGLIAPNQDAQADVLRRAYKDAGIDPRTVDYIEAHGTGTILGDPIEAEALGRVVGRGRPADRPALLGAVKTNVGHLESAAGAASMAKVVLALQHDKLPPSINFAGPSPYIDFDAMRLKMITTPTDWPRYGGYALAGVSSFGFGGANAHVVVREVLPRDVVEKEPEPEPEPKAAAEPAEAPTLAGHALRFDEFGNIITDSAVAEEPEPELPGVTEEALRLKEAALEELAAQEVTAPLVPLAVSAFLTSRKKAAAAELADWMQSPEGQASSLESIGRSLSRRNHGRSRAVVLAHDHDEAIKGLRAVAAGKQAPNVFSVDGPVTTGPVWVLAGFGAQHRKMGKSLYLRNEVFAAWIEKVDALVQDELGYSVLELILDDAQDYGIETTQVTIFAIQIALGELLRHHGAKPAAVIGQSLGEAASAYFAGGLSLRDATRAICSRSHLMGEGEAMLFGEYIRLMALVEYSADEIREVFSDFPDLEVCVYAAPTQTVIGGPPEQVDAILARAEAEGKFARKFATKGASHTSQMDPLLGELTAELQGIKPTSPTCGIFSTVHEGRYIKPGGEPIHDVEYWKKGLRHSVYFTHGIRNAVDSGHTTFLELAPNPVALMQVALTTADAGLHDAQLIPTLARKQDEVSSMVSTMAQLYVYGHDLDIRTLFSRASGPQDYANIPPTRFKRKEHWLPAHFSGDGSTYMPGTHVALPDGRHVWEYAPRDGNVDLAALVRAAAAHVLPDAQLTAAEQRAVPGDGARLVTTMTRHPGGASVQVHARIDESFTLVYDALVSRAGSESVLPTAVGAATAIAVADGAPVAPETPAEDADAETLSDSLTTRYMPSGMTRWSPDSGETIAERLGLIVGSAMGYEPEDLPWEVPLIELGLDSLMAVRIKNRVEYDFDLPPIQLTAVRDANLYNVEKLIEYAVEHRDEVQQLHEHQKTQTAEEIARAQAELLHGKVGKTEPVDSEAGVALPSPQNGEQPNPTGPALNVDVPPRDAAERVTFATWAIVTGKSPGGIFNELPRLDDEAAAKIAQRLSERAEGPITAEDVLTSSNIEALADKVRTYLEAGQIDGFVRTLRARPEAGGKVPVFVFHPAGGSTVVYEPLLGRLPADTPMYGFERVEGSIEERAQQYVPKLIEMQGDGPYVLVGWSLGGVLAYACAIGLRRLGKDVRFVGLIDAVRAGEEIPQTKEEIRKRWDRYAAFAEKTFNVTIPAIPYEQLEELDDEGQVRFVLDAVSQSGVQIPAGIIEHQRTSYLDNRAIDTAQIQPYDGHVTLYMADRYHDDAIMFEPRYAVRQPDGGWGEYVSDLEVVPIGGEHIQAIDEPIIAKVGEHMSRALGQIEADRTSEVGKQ

Structure (SMILES)	IC50 (Proteasome subunit beta)	pIC50 [1]	IC50 [2]	other results
CC(C1CC1)N(C)C(=O)c1cnc(-c2ccc3c(c2)OCO3)s1 (stereo not drawn)	13.7 µM and 13.1 µM	4.375 and 4.324	–	Percent Effect (Schistosoma mansoni): 12.48%
COc1cccc(C(=O)NCC(O)c2cccs2)c1 (stereo not drawn)	16.9 µM and 18.4 µM	4.037 and < 4	–	Percent Effect (Schistosoma mansoni): -12.61%
CN(Cc1ccccn1)C1COC2(CCN(Cc3cccnc3)CC2)C1 (stereo not drawn)	–	–	> 100 µM	–
CSc1ccccc1C(C(=O)O)N1CCN(Cc2ccccn2)CC1 (stereo not drawn)	–	–	> 100 µM	–
O=C1CSC(c2ccsc2)c2c(n(C3CCOCC3)[nH]c2=O)N1 (stereo not drawn)	–	–	> 100 µM	–
CN(C)c1ncc(CN2CCOC(C(=O)Nc3ccccc3)C2)cn1 (stereo not drawn)	–	–	> 100 µM	–
CCC(C(=O)NC)N(c1cccc(C)c1)S(C)(=O)=O (stereo not drawn)	–	–	> 100 µM	–
Cc1cnn(C2CN(CC(=O)NCc3ccccn3)C2)c1	14.9 µM and 19.7 µM	< 4	–	IC50 [3]: > 30.2 µM; IC50 (Histidine--tRNA ligase): > 100 µM
COCc1noc(-c2ccc(N3CCCCC3CO)nc2)n1 (stereo not drawn)	8.74 µM and 8.62 µM	4.522 and 4.491	–	pIC50 (Plasmodium falciparum): 7.545; IC50 (Plasmodium falciparum): 0.0293 µM
CC(C)c1n[nH]c(C(=O)Nc2cc[nH]n2)c1Br	5.88 µM and 6.65 µM	4.666 and 4.69	–	pIC50 (Plasmodium falciparum): 7.564; IC50 (Plasmodium falciparum): 0.0186 µM
CC1=Nc2c(c(=O)[nH]n2C2CCOCC2)C(c2cccc(Br)c2)S1 (stereo not drawn)	–	–	> 100 µM	–
Cc1ccc(N(C)C2CCN(C(=O)CCc3ccco3)CC2)nn1	12.8 µM and 16.7 µM	< 4	–	IC50 [3]: > 30.2 µM; IC50 (Histidine--tRNA ligase): 41.4 µM and 49.7 µM
C[S+]([O-])CCCNC(=O)c1cc(Br)c2c(c1)OCCO2 (stereo not drawn)	–	–	> 100 µM	–
Cc1[nH]ccc1C(=O)N1CCCC(c2nccn2Cc2cscn2)C1 (stereo not drawn)	–	–	> 100 µM	–
Cc1nc(NCC2CC2)nc2c1COCC21CCN(C)C1 (stereo not drawn)	–	–	> 100 µM	–
COCCN1C[C@@H]2CCCO[C@@H]2[C@H](N(C)Cc2ccco2)C1	–	–	> 100 µM	–
COc1cccc(CNCc2nnc3n2CC(C(F)(F)F)CC3)c1 (stereo not drawn)	–	–	> 100 µM	–
COc1cccc([C@@H]2CN(C(=O)c3ccc(C)cc3O)C[C@H]2C(=O)O)c1	–	–	> 100 µM	–
CN1CCCC1c1ccc(C(=O)N2CCc3ccccc3C2)s1 (stereo not drawn)	10.3 µM and 8.37 µM	4.715 and 4.643	–	pIC50 (Plasmodium falciparum): 6.857; IC50 (Plasmodium falciparum): 0.121 µM
CO[C@@H]1CN(Cc2scnc2C)[C@@H]2CCCO[C@@H]21.O=C(O)C(F)(F)F.O=C(O)C(F)(F)F	8.6 µM and 10.8 µM	< 4	–	IC50 (ClpP1P2): > 100 µM

Structure (SMILES)	IC50 (Proteasome subunit beta)	pIC50 [1]	IC50 [2]	other results
Cc1cc(N2CCN(CC(=O)N(C)C)CC2)nc(-c2ccncc2)n1	> 100 µM	< 4	–	IC50 (Histidine--tRNA ligase): > 100 µM
Cc1cnc(CN(Cc2ccccc2)CC(O)c2cccs2)cn1 (stereo not drawn)	–	–	> 100 µM	–
CCN(C)c1ccc(C(=O)N(CCOC)Cc2ccccn2)cc1	–	–	> 100 µM	–
Cc1nc(CCNC(=O)N2CCC(Cc3cnn(C)c3)C2)cs1 (stereo not drawn)	–	–	> 100 µM	–
Cc1cc(CNC(=O)N2CCN(c3nc(C)c(C)s3)CC2)no1	–	–	> 100 µM	–
COc1ccccc1CN1CCC2(CC1)CC(Oc1ccccn1)CO2 (stereo not drawn)	–	–	> 100 µM	–
CNS(=O)(=O)Cc1ccc(CNc2cncc(-n3cccn3)n2)cc1	10.5 µM and 10.6 µM	4.398 and 4.427	–	IC50 (ClpP1P2): > 100 µM
CNC(=O)[C@H]1C[C@@H]2CN(C(=O)c3ccco3)C[C@@H]2N1S(C)(=O)=O	–	–	> 100 µM	–
O=C(NCc1ccccn1)[C@]12COC[C@H]1CN(C1CCC1)C2	–	–	> 100 µM	–
O=C(NCc1ccncc1)N(Cc1ccccc1F)C1CC1	–	–	> 100 µM	–
Cc1nn(CCO)c(C)c1CNC1CCc2c(Cl)cccc21 (stereo not drawn)	–	–	> 100 µM	–
Cc1ccc([C@@H]2CN(S(=O)(=O)N(C)C)C[C@H]2N(C)C)cc1	–	–	> 100 µM	–
O=C(Cn1nc2c(cc1=O)CSCC2)NC(Cc1ccccc1)C(=O)O (stereo not drawn)	–	–	> 100 µM	–
CS(=O)(=O)NCC(=O)N1CCCC1c1noc(C2CC2)n1 (stereo not drawn)	–	–	> 100 µM	–
Cc1nc(C)c(C(=O)OCCNc2ncccc2C#N)s1	7.22 µM and 8.26 µM	4.56 and 4.563	–	IC50 [4]: > 100 µM
CC(O)CNCc1ccc(OCc2ccc3c(c2)OCCO3)cc1.Cl (stereo not drawn)	9.3 µM and 9.77 µM	4.507 and 4.501	–	pIC50 (Plasmodium falciparum): 6.937; IC50 (Plasmodium falciparum): 0.0903 µM
CCn1c(NCc2ccco2)nc2c(C)nn(C)c2c1=O	–	–	> 100 µM	–
Cc1cc(S(=O)(=O)Nc2cccc(-n3cccc3)c2)sc1C(=O)O	16.4 µM and 18.9 µM	< 4	–	IC50 [3]: > 30.2 µM; IC50 [5]: 2.38 µM and 0.803 µM
Cc1ncsc1CCC(=O)N1CCCC[C@H](N(C)C)C1	–	–	> 100 µM	–
O=C(Cn1ccc2c(Cl)cccc21)N1CCC2(CC1)OCCO2	–	–	> 100 µM	–
